Experimental data reported in PMC6914219 (European journal of pharmacology, 2019).

Tested on: Caco-2 monolayers

Question: How did the Papp turn out when lucifer yellow was run?
Answer: < 1e+12 ×10⁻⁶ cm/s
